According to patent US7176217B2, “Azabicyclo compound matrix metalloprotease inhibitor and skin preparation” (Shiseido Co., Ltd., priority 2001, dated 2007):

Target: T1, MMP-9 (crude enzyme solution derived from a mouse skin) (Mus musculus, UniProt P41245)
T1 construct: crude enzyme solution derived from a mouse skin; from tissue; host or cells: mouse skin
Test: Gelatinase group MMPs inhibition test (gelatin zymography)
Format: biochemical
Design: key: ⊚: The band disappeared.; ◯: The band was slightly confirmed.; Δ: The band became narrower than control.; X: Unchanged
Settings: sample solution 100 μM; gel incubated overnight; size of MMP-9 band compared with control solution
Protocol: A test material was dissolved in dimethyl sulfoxide (DMSO) to the concentration of 10 mM, to prepare a stock solution. The stock solution was diluted with a measuring buffer (0.05M tris at pH 7.5 containing 0.2M NaCl and 5 mM CaCl2) to adjust the concentration to 100 μM, which was used as a sample solution. As a control solution, a solution containing no test material was similarly prepared.
As a gelatinase group enzyme, MMP-9 (crude enzyme solution derived from a mouse skin) was used. The test was performed according to a gelatin zymography method (“Bio-antioxidant provitamin C”, Nobuhiko Miwa ed., p. 76, 1999, Fragrance Journal, Tokyo).
That is, a gel containing gelatin in which a predetermined amount of the crude enzyme solution had been subjected to electrophoresis in advance, was incubated overnight with a sample solution or a control solution. After the gel was stained, the appearing band corresponding to MMP-9 was evaluated by a decrease when its size compared with that of a band of control solution. Evaluation criteria was as follows: • ⊚: The band disappeared. • ◯: The band was slightly confirmed. • Δ: The band became narrower than control. • X: Unchanged.

T1 sequence (P41245 108-730): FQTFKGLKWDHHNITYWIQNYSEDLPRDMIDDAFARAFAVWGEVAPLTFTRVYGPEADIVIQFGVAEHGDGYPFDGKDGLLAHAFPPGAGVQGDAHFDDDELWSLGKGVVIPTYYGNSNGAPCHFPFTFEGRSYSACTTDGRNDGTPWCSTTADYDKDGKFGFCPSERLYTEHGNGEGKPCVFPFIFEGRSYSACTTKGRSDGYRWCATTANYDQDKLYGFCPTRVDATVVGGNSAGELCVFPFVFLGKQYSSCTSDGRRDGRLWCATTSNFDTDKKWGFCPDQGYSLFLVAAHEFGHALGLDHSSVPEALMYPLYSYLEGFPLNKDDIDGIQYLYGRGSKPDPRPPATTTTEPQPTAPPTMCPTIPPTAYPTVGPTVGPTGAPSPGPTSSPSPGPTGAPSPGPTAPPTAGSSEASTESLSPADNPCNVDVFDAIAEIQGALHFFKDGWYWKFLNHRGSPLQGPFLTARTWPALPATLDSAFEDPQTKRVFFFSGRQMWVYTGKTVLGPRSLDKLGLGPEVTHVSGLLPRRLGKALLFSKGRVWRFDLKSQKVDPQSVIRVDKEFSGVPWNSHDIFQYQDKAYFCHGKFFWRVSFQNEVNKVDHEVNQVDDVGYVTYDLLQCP

SMILES	MMPs Inhibition
O=C(NO)[C@H]1[C@@H]2CC[C@@H](C2)N1S(=O)(=O)c1ccccc1 [Compound 8, (1S, 3R, 4R)—N-Hydroxy-2-(phenylsulfonyl)-2-azabicyclo[2.2.1]heptane-3-carboxamide]	◯
CCCCOc1ccc(S(=O)(=O)N2[C@H]3CCC(C3)[C@@H]2C(=O)NO)cc1 [Compound 12, (1S, 3R, 4R)-2-[4-(Butoxyphenyl)sulfonyl]-N-hydroxy-2-azabicyclo[2.2.1]heptane-3-carboxamide]	⊚
COc1ccc(S(=O)(=O)N2[C@@H]3CC(C(C)(C)C)[C@H](C3)[C@@H]2C(=O)NO)cc1 (stereo partly drawn) [Compound 14, 5-(tert-Butyl)-(1R, 3R, 4S)—N-hydroxy-2-[(4-methoxyphenyl)sulfonyl]-2-azabicyclo[2.2.1]heptane-3-carboxamide]	◯

The remaining lines, values ahead:

MMPs Inhibition	SMILES
◯~⊚	COc1ccc(S(=O)(=O)N2C3CCC(CC3)[C@@H]2C(=O)NO)cc1 [Compound 7, (3R)—N-Hydroxy-2-[(4-methoxyphenyl)sulfonyl]-2-azabicyclo[2.2.2]octane-3-carboxamide]
◯	O=C(NO)[C@H]1[C@@H]2CC[C@@H](C2)N1S(=O)(=O)c1ccc(F)cc1 [Compound 13, (1S, 3R, 4R)-2-[(4-Fluorophenyl)sulfonyl]-N-hydroxy-2-azabicyclo[2.2.1]heptane-3-carboxamide]
◯~⊚	COc1ccc(S(=O)(=O)N2[C@H]3CC[C@H](C3)[C@@H]2C(=O)NO)cc1 [Compound 3, (1S, 3R, 4R)—N-Hydroxy-2-[(4-methoxyphenyl)sulfonyl]-2-azabicyclo[2.2.1]heptane-3-carboxamide]
◯~⊚	COc1ccc(S(=O)(=O)N2C3CCC(C3)C2C(=O)NO)cc1 (centres unmarked) [Compound 1, N-Hydroxy-2-[(4-methoxyphenyl)sulfonyl]-2-azabicyclo[2.2.1]heptane-3-carboxamide]
◯	O=C(NO)[C@H]1[C@@H]2CC[C@@H](C2)N1S(=O)(=O)c1ccc(Cl)cc1 [Compound 9, (1S, 3R, 4R)-2-[(4-Chlorophenyl)sulfonyl]-N-hydroxy-2-azabicyclo[2.2.1]heptane-3-carboxamide]
